Each block holds one compound with its values, some of them ahead of it.
Key:
[1] = target: T1, CRBN^E377V (Homo sapiens, UniProt Q96SW2, E377V); assay: Thalidomide analog-coupled affinity bead assay, DF15R CRBN^E377V cell extracts; assay type: binding; conditions: preincubation of cell extracts with free compound, comparable to CRBN^WT
T1 construct: Cell lines re-expressing RFP or full length CRBN wild type or E377V mutant; expressed in transfected cells; host or cells: DF15R (CRBN-deficient myeloma line), lentiviral system; cell extract
Description: (§1) DF15, DF15R or DF15R derived cell line extracts were prepared in NP 40 lysis buffer (0.5% NP40, 50 mM Tris HCl (pH 8.0), 150 mM NaCl, 0.5 mM DTT, 0.25 mM PMSF, 1× protease inhibitor mix (Roche, Indianapolis, Ind.) at approximately 2×10^8 cells per ml […]. Cell debris and nucleic acids were cleared by centrifugation (14,000 rpm 30 min 4° C.). In competition experiments 0.5 ml (3-5 mg protein) aliquots of the resulting extracts were preincubated (15 min room temp.) with 5 μl DMSO (control) or 5 μl compound at varying concentrations in DMSO. Thalidomide analog-coupled beads (0.3-0.5 mg) were added to protein extracts and samples rotated (2 hours, 4° C.). Beads were washed three times with 0.5 ml NP40 buffer, and then bound proteins were eluted with SDS-PAGE sample buffer.
To probe the function of the residues proximal to the bound IMiD® drug, we performed mutagenesis of residue E377 to valine in the human CRBN sequence and re-expressed the protein using a lentiviral system in DF15R cells. Cell extracts from this line were used to assay the ability of CRBN^E377V to bind IMiD® compound.

[2] = target: T2, CRBN (Homo sapiens, UniProt Q96SW2); conditions: in vitro; cited from earlier work
[3] = target: T3, CRBN^WT (Homo sapiens, UniProt Q96SW2); assay: Thalidomide analog-coupled affinity bead assay, DF15R CRBN^WT cell extracts; assay type: binding; conditions: preincubation of cell extracts with free compound
T3 construct: re-express full length wild type (CRBN^WT), W386A (CRBN^W386A) or W400A (CRBN^W400A) mutant versions of CRBN; FLAG; expressed in transfected cells; host or cells: DF15R (CRBN-deficient myeloma line), lentiviral transduction, puromycin selection; cell extract
Description: as §1

[4] = mice and rats; cited from earlier work
[5] = tested on: MDA-MB-231; assay: Growth inhibition and pro-apoptotic activity in breast cancer cells treated with CRBN siRNA; assay type: cell-based; conditions: CRBN siRNA vs negative control
Description: Breast cancer cells (MDA-MB-231) were treated with CRBN siRNA or a negative control. CC-885 was added at a concentration between 0 to 100 μM, and CRBN levels were assessed at 48 hours post treatment.

[6] = tested on: H929; assay: Apoptosis in multiple myeloma cell line H929; assay type: cell-based; conditions: 0.01 nM to 1000 nM, assessed at 24 hrs
Description: The multiple myeloma cell line, H929, was cultured and treated with CC-885 or other CMA analogs at various concentrations from 0.01 nM to 1000 nM. Apoptosis was assessed at 24 hrs. later.

[7] = tested on: DF15 (sensitive), DF15R (resistant; CRBNnull) cells; assay: Cell proliferation assay of DF15, DF15R and DF15R-derived cells with CC-885; assay type: cell-based
[8] = tested on: TMD8 (ABC) or Karpas 422 (GCB) cells; assay: 3H-thymidine incorporation proliferation assay, co-treatment with lenalidomide; assay type: cell-based; conditions: for anti-proliferative effects on co-treatment with lenalidomide: co-treatment with 10 μM lenalidomide
[9] = tested on: panel of tumor cell lines; assay: Potency across a panel of tumor cell lines; assay type: cell-based
Description: The potency of CC-885 was assessed across a panel of tumor cell lines, including B-lymphoma, breast, CNS, colon, kidney, leukemia, lung, melanoma, multiple myeloma, ovary and prostate.

[10] = target: T2, CRBN; assay: Thalidomide analog affinity bead competition, U266 cell extracts; assay type: binding; parameters: extracts prepared from U266 multiple myeloma cells; endogenous in cells; host or cells: U266 multiple myeloma cells (cell extract); conditions: U266 MM cell extracts, competition with thalidomide analog affinity beads
Description: Immunoblot analysis of extracts prepared from U266 multiple myeloma cells and pre-incubated with vehicle DMSO (D), Pomalidomide (Pom) or CC-885 at the indicated concentrations, and bound to thalidomide analog affinity beads, washed and eluted with SDS buffer as previously described (Ito et al, 2010; Lopez-Girona et al, 2012). Samples were subjected to SDS-PAGE and immunoblot analysis using anti-CRBN 65-76 (1:10,000 dilution; Red signal) and anti-DDB1 (Cell Signaling) (1:2,000 dilution; Green signal). A LI-COR Odissey system was used to quantify CRBN band density and relative amounts of CRBN were determined by averaging at least three DMSO controls and expressing CRBN in each competition sample as percent inhibition of CRBN protein relative to the averaged controls as 100% binding. […] Cell proliferation assay of DF15 (sensitive), DF15R (resistant; CRBNnull) cells treated with a dose response of CC-885. Assays were done in triplicate and error bars represent s.d. Data for each cell line was normalized to treatment with vehicle (DMSO). […] Cell proliferation assay of DF15 (sensitive), DF15R (resistant; CRBNnull), DF15R-hCRBNWT (human CRBN), DF15R-RFP cells treated with a dose response of CC-885. […] Assays were done in triplicate and error bars represent s.d. Data for each cell line was normalized to treatment with vehicle (DMSO). […]

[11] = tested on: DF15R cells; assay: Cell proliferation assay of DF15R cells re-expressing CRBN wild type or mutants; assay type: cell-based
[12] = tested on: H929 and U266; assay: Cell viability in CRBN inducible shRNA knockdown myeloma cells; assay type: cell-based; conditions: CRBN inducible knockdown vs shControl, 5 day treatment
Text: FIG. 25A: An inducible shRNA construct targeting CRBN or a control construct was transduced into the multiple myeloma cell lines H929 and U266. Inducible shRNA expression (marked by turbo-RFP) was monitored by flow cytometry over a period of 1 to 9 days as indicated in the histograms (Top row). […] FIG. 25B: CRBN protein expression was quantified by Western blotting. […] Data are shown as mean of three independent experiments±s.d.
Inducible shRNA constructs targeting CRBN or a control construct (Open Biosystems) were transduced using spinoculation methodology into the multiple myeloma cell lines H929 and U266. Stably transduced cells were selected with puromycin. Inducible shRNA expression (marked by RFP) was monitored by fluorescence microscopy and flow cytometry using 1 μg/mL doxycycline. CRBN protein expression was quantified by Western blotting. Cell proliferation and viability were assessed by 7AAD/flow cytometry assays. 6.9.2.5 Immunoblot and Immunohistochemistry

[13] = tested on: IL-2; assay: IL-2 induction in mouse splenocytes; assay type: cell-based
Text: FIGS. 26A-26B show IL2 costimulation by pomalidomide. FIG. 26A: Co-stimulation of IL2 release by pomalidomide in human PBMCs treated with anti-CD3. Data are shown as mean±s.d. FIG. 26B: Costimulation of IL2 release by anti-CD28 (squares) or pomalidomide (circles) in mouse PBMC treated with anti-CD3. Data are shown as mean±s.d.

competition for CRBN^E377V binding to thalidomide analog-beads [1]: competed | competition for CRBN binding to thalidomide analog-beads [3]: competed for binding to the beads
Structure (SMILES): O=C1CCC(N2C(=O)c3ccccc3C2=O)C(=O)N1 (racemic) [thalidomide]
auto-ubiquitination of CRBN [2]: able to inhibit | teratogenic effects [4]: insensitive

competition for CRBN^E377V binding to thalidomide analog-beads [1]: competed | competition for CRBN binding to thalidomide analog-beads [3]: competed for binding to the beads
Structure (SMILES): Nc1cccc2c1C(=O)N(C1CCC(=O)NC1=O)C2=O (stereo not shown) [pomalidomide]
sensitivity to antiproliferative effect ([11]; DF15R re-expressing CRBN^E377V): unable to rescue sensitivity | antiproliferative effect ([11]; DF15R re-expressing CRBN^WT): regained antiproliferative effect | anti-proliferative effects [12]: reduced anti-proliferative effects | IL-2 inducing effects [13]: resistant

Continued, compound first:

Structure (SMILES): Cc1ccc(NC(=O)NCc2ccc3c(c2)CN(C2CCC(=O)NC2=O)C3=O)cc1Cl (stereo not shown) [CC-885, 1-(3-chloro-4-methylphenyl)-3-((2-(2,6-dioxopiperidin-3-yl)-1-oxoisoindolin-5-yl)methyl)urea]
growth inhibition, dependence on CRBN [5]: CRBN is required | pro-apoptotic activity, dependence on CRBN [5]: CRBN is required | early apoptosis [6]: induced early apoptosis | anti-proliferative activity after re-expression of human CRBN ([7]; DF15R-hCRBNWT): recues CC-885 anti-proliferative activity | anti-proliferative activity, dependence on CRBN ([7]; DF15 vs DF15R (CRBNnull)): CRBN is required | anti-proliferative effects on co-treatment with lenalidomide [8]: blocks anti-proliferative effects | potency across tumor cell line panel ([9]; B-lymphoma, breast, CNS, colon, kidney, leukemia, lung, melanoma, multiple myeloma, ovary and prostate): potent | Therapeutic Index ([9]; toxic effects at low doses): low | binding to CRBN protein [10]: binds

Structure (SMILES): Cc1nc2cccc(N)c2c(=O)n1C1CCC(=O)NC1=O (stereo not shown) [Compound A, 3-(5-amino-2-methyl-4-oxo-4H-quinazolin-3-yl)-piperidine-2,6-dione]
anti-proliferative effects on co-treatment with lenalidomide [8]: blocks anti-proliferative effects

Structure (SMILES): Nc1cccc2c1CN(C1CCC(=O)NC1=O)C2=O (stereo not shown) [lenalidomide, 3-(4-amino-1-oxo-1,3-dihydro-isoindol-2-yl)-piperidine-2,6-dione]
competition for CRBN ([8]; against Compound A and CC-885): competes | teratogenic effects [4]: insensitive
